One data set deals with HIV-1 strain 2165. Conditions: peptide with Pep-1 or Pep-3 at ratio 20/1, combinations with Pep-3.
The subject of the next data set is HIV-1 strain BH10. Conditions: peptide with Pep-1 or Pep-3 at ratio 20/1, combinations with Pep-3.
The subject of another data set is HIV-1 strain 2914. Conditions: peptide with Pep-1 or Pep-3 at ratio 20/1, combinations with Pep-3.
The target of a further data set is IN/DNA complexes (Human immunodeficiency virus type 1 group M subtype B, UniProt P04585). Nature of the data set: Dissociation of pre-formed IN-DNA substrate complexes. The data set is classed as biochemical, HIV-1. As to the method: For dissociation experiments, IN-DNA substrate complexes were pre-formed at 25° C. before addition of peptides. The peptide-mediated dissociation of complexes was then studied at the same temperature by measuring the decrease in the r value as a function of time.

The nature of a further data set: in vivo. The settings on record: for half-life: female, BALB/c, mouse, in vivo, iv, 10 μg; for tissues with peptide accumulation: formulated with CADY-2c/CADY-1S1, after 24 hr; for time of optimal distribution: formulated with CADY-2c/CADY-1S1, intravenous; for distribution of naked peptide: intravenous, after 15 min. How it is done:
In order to evaluate the potency of the peptides p27 (SEQ ID NO: 25) and p16 (SEQ ID NO: 19) in vivo, it was analyzed their ability to be systemically administrated by intravenous injection in mice (BALB/c; 6 to 8 week-old female mice). Peptides were either radio-labeled at the N-terminal amino acid or fluorescently labeled with Alexa® Fluo700 probe. […] Particles were injected intravenously (100 μl) and kinetic of peptide distribution were followed by fluorescence live imaging. 24 hr after injection, the level of peptides in the different tissues were quantified by fluorescence and radioactivity.

The subject of the next data set is HIV-1-LAI strain. As to the method:
The anti-HIV activities of the peptides were assayed according to the methods described in Roisin et al. (2004). Phytohemagglutinin-P(PHA-P)-activated peripheral blood mononuclear cells (PBMC) treated by increasing concentrations of peptide (from 100 to 0.1 nM), one hour later, were infected with hundred 50% tissue culture infectious doses (TCID50) per 100,000 cells of the HIV-1-LAI strain (Barre-Sinoussi et al., 1983). This virus was amplified in vitro on PHA-P-activated PBMC. Viral stock was titrated using PHA-P-activated PBMC, and 50% TCID50 were calculated using Kärber's formula (Kärber, 1931). Samples were maintained throughout the culture, and cell supernatants were collected at day 7 post-infection and stored at −20° C. Viral replication was measured by quantifying reverse transcriptase (RT) activity in cell culture supernatants. In parallel, cytotoxicity of the compounds was evaluated in uninfected PHA-P-activated PBMC by colorimetric 3-(4-5 dimethylthiazol-2-yl)2,5diphenyl tetrazolium bromite (MTT) assay on day 7 (as described in Mossmann, 1983). Experiments were performed in triplicate and repeated with another blood donor. Data analyses were performed using SofiMax® Pro 4.6 microcomputer software: percent of inhibition of RT activity or of cell viability were plotted vs concentration and fitted with quadratic curves; 50% effective doses (ED50) and cytotoxic doses (CD50) were calculated.
In order to avoid any limitation due to the poor ability of peptides to cross cellular membranes, they were associated to the peptide-based nanoparticle delivery system Pep-1 (SEQ ID NO: 29), at a 1/10 molar ratio.

In data set [1] the test system is efavirenz-resistance HIV strain harbouring K103N and N341V mutations on reverse transcriptase. It is filed as in vivo, Hu-PBL-SCID transgenic mice. The settings on record: EFZ resistance strain; 20 mg/kg/day; peptides formulated with CADY-2c/CADY-1S1. As to the method: (§1) The potency of the peptides p27 (SEQ ID NO: 25) and p16 (SEQ ID NO: 19) was assessed in vivo following intravenous challenge of Hu-PBL-SCID transgenic mice (in which human (hu) peripheral blood leukocytes (PBLs) from healthy Epstein-Barr virus (EBV)-seropositive donors are injected into severe combined immunodeficiency (SCID) mice; Mosier et al., 1988). The mice (6 to 8 week-old male mice, 5 animals per group) were infected with wild type HIV 1 virus or efavirenz-resistance HIV strain harbouring K103N and N341V mutations on reverse transcriptase. Infected mice were treated with peptides formulated with the peptide vector CADY-2c (see above) in water at a ratio 1/20, and then particles were coated with 3% of CADY-1S1 (see above), as described in International Application WO 2007/069090. Particles were injected intravenously (100 μl) every 2 days for 1 week, then HIV-1 copy were quantified by quantitative PCR. Efavirenz (a non-nucleoside reverse transcriptase inhibitor; EFZ) was used a positive drug control.

The subject of a further data set is HIV-1 strain 1650. The settings on record: peptide with Pep-1 or Pep-3 at ratio 20/1, combinations with Pep-3.
The next data set concerns the target T1, HIV-1 integrase (Human immunodeficiency virus type 1 group M subtype B, UniProt P04585).
T1 construct: Integrase is a 32 kDA viral protein that is biologically active under a multimeric form
Nature of the data set: biochemical. The data set is classed as binding. How it is done:
Fluorescein-labeled peptides (40 nM) were mixed with varying concentrations of integrase in 20 mM Tris pH 7.2, 50 mM NaCl, 10 mM MgCl2, and the r values were recorded.
Effect of the different peptides on the integrase (IN) activity, DNA binding and IN/DNA dissociation were evaluated as described in Example III.1 above, using fluorescence polarization and anisotropy measurements. Binding constant of the peptide for IN was determined by steady state fluorescence and anisotropy.

The test system of the next data set is wild type HIV 1 virus. Nature of the data set: HIV propagation in Hu-PBL-SCID mice, wild type virus. The data set is classed as in vivo, Hu-PBL-SCID transgenic mice. Conditions: 20 mg/kg; peptides formulated with CADY-2c/CADY-1S1; HIV-1 DNA copies in splenocyte extracts. As to the method:
as §1

The mark [2] stands for this setting: read-out: EC50 HIV-1 lai, Table 10.

These results are taken from patent publication US20110294728A1, “Antiviral Polypeptides” (priority 2008, published 2011).

Like-named read-outs stand apart in the source and are kept apart here. Where no end group is shown, it is not given here.

As a reminder, the IC50 is the midpoint of a concentration-inhibition curve. As a reminder, the EC50 is the midpoint of the concentration-response curve. What is called half-life is the time in which the quantity being followed falls by half. As a reminder, the Kd is a measure of binding affinity in units of concentration. Take GTKWLTEVWPL [Peptide P16]: the IC50 in the data set on HIV-1 strain 2165 amounted to 2.7 nM; with HIV-1 strain BH10 it was 5.9 nM; in the data set with HIV-1 strain 2914, 1.7 nM; with HIV-1 strain 1650, 7.5 nM. Further, the concentration for a half-maximal effect (EC50) at IN/DNA complexes amounted to 11000 nM; with HIV-1-LAI strain (setting [2]), 5.9 nM. In “in vivo”, the half-life was under 1 h. Moreover, in “in vivo”, the “tissues with peptide accumulation” value is reported as “liver, brain, stomach, kidney, lung”. Besides, the “time of optimal distribution” value in “in vivo” is 5 h. Besides, in the data set “in vivo”, the “distribution of naked peptide” value was “accumulated mainly in the bladder”. Also, the “reduction of viral propagation” value in data set [1] was determined as 58%. This sequence displayed a dissociation constant Kd on HIV-1 integrase of 0.12 µM. The “HIV propagation in vivo (in words)” value in the data set on wild type HIV 1 virus was “block HIV propagation in vivo”.

On to GTKWLTEWIPLTAE [Peptide P27], for which the IC50 is 2.6 nM in the data set with HIV-1 strain 2165; 1.4 nM in the data set on HIV-1 strain BH10; 0.2 nM in the data set on HIV-1 strain 2914; under 0.32 nM in the data set on HIV-1-LAI strain (read-out: IC50, antiviral activity, text b123, peptide with Pep-1); 0.8 nM with HIV-1 strain 1650. Besides, the EC50 on IN/DNA complexes was over 100000 nM; in the data set with HIV-1-LAI strain (PBMC, HIV-1 LAI, day 7, /Pep-1 = associated to Pep-1 at 1/10 molar ratio) it was over 1000 nM; with HIV-1-LAI strain (setting [2]), 0.21 nM. In “in vivo”, this sequence registered a half-life of under 1 h. For the same sequence, the “tissues with peptide accumulation” value in “in vivo” is on record as “liver, brain, stomach, kidney, lung”. Further, the “time of optimal distribution” value in “in vivo” came to 5 h. Also, the “distribution of naked peptide” value in “in vivo” is recorded as “accumulated mainly in the bladder”. Also, the “reduction of viral propagation” value in [1] was 72%. For the same sequence, the Kd is over 100 µM on HIV-1 integrase and over 100 µM on HIV-1 integrase (read-out: Kd IN binding, Table 10, cell prints μM). Further, the “HIV propagation in vivo (in words)” value with wild type HIV 1 virus is recorded as “block HIV propagation in vivo”.
